Consider ten compounds from ChEMBL document CHEMBL4665876, “Protection of all cleavable sites of DNA with the multiple CGCG or continuous CGG sites from the restriction enzyme, indicative of simultaneous binding of small ligands” (Bioorg Med Chem, 2020).

Common to all, as to type: nucleic-acid assay
The test system of experiment [1] is Nucleic Acid. Description: Binding affinity to GC5(5) of DNA (unknown origin) assessed as inhibition of ACCII mediated DNA hydrolysis at 1 uM preincubated for 14 hrs followed by ACCII addition and measured after 120 mins by SYBR staining-based PAGE analysis. As to conditions: Homo sapiens, time 16.0 hrs.
Experiment [2] concerns Nucleic Acid. Description: Binding affinity to d(CGG)16 of DNA (unknown origin) assessed as inhibition of Fnu4HI mediated DNA hydrolysis at 25 uM preincubated for 14 hrs followed by Fnu4HI addition and measured after 60 mins by SYBR staining-based PAGE analysis. The following applies: Homo sapiens.
The test system of experiment [3] is Nucleic Acid. Description: Binding affinity to GC5(2) of DNA (unknown origin) assessed as inhibition of ACCII mediated DNA hydrolysis at 10 to 50 uM preincubated for 14 hrs followed by ACCII addition and measured after 120 mins by SYBR staining-based PAGE analysis. As to conditions: Homo sapiens; dose microM 10-50, time 14.0 hrs.
Experiment [4] concerns Nucleic Acid. Description: Binding affinity to d(CGG)10 of DNA (unknown origin) assessed as inhibition of Fnu4HI mediated DNA hydrolysis at 25 uM preincubated for 14 hrs followed by Fnu4HI addition and measured after 60 mins by SYBR staining-based PAGE analysis. The following applies: Homo sapiens.
For experiment [5], the system named is Nucleic Acid. Description: Binding affinity to d(CGG) of DNA (unknown origin) assessed as inhibition of Fnu4HI mediated DNA hydrolysis preincubated for 14 hrs followed by Fnu4HI addition and measured after 60 mins by SYBR staining-based PAGE analysis. The following applies: Homo sapiens.
Experiment [6] concerns Nucleic Acid. Description: Binding affinity to CGCG site of DNA (unknown origin) at 10 uM by PAGE analysis.
In experiment [7] the test system is Nucleic Acid. Description: Binding affinity to d(CGG)16 of DNA (unknown origin) assessed as inhibition of Fnu4HI mediated DNA hydrolysis at 10 uM preincubated for 14 hrs followed by Fnu4HI addition and measured after 60 mins by SYBR staining-based PAGE analysis. The following applies: Homo sapiens.
The subject of experiment [8] is Nucleic Acid. Kind of experiment: Binding affinity to GC5(5) of DNA (unknown origin) assessed as inhibition of ACCII mediated DNA hydrolysis at 10 to 50 uM preincubated for 14 hrs followed by ACCII addition and measured after 120 mins by SYBR staining-based PAGE analysis. The following applies: Homo sapiens; dose microM 10-50, time 14.0 hrs.
Experiment [9] deals with Nucleic Acid. Kind of experiment: Binding affinity to GC2(5) site of DNA (unknown origin) assessed as inhibition of ACCII mediated DNA hydrolysis at 50 uM preincubated for 14 hrs followed by ACCII addition and measured after 120 mins by SYBR staining-based PAGE analysis. As to conditions: Homo sapiens.
Experiment [10] has as its system Nucleic Acid. Kind of experiment: Binding affinity to GC1 of DNA (unknown origin) assessed as inhibition of ACCII mediated DNA hydrolysis at 50 uM preincubated for 14 hrs followed by ACCII addition and measured after 120 mins by SYBR staining-based PAGE analysis. As to conditions: Homo sapiens.

Calls of active or inactive are those of the source. The rule behind the calls is not given here.

Regarding `CCC[C@@H]1C(=O)c2c(cc3cc(OCCOCCOCC(=O)O)cc(O)c3c2O)C[C@H]1C`, in the experiment on Nucleic Acid [1], the outcome was Active. For `C[C@H]1CC(=O)c2c(cc3cc(OCCOCC(=O)NO)cc(O)c3c2O)C1`, the result with Nucleic Acid [2], in the experiment with Nucleic Acid [3] and in the experiment with Nucleic Acid [4] was Active.

For `C[C@H]1CC(=O)c2c(cc3cc(OCCOCCOCC(=O)NO)cc(O)c3c2O)C1`, the result with Nucleic Acid [5] was inactive. Moreover, the outcome with Nucleic Acid [1] and in the experiment on Nucleic Acid [6] was Active. Consider `O=C1CCCc2cc3cc(O)cc(O)c3c(O)c21`, for which the outcome in the experiment with Nucleic Acid [6] was inactive. Still for that read-out and setting: with `CCC[C@@H]1C(=O)c2c(cc3cc(O)cc(O)c3c2O)C[C@H]1C` the entry was “inactive”. In the case of `O=C(COCCOc1cc(O)c2c(O)c3c(cc2c1)CCCC3=O)NO`, the outcome in the experiment with Nucleic Acid [3] was Active. On to `C[C@H]1CC(=O)c2c(cc3cc(O)cc(O)c3c2O)C1`, for which the outcome in the experiment on Nucleic Acid [6] was inactive. As for `CCC[C@@H]1C(=O)c2c(cc3cc(OCCOCCOCCOC)cc(O)c3c2O)C[C@H]1C`, the result in the experiment on Nucleic Acid [1] was inactive.

Consider `C[C@H]1CC(=O)c2c(cc3cc(OCC(=O)NO)cc(O)c3c2O)C1`, for which the outcome in the experiment with Nucleic Acid [7] was Active. Moreover, the outcome with Nucleic Acid [6] was inactive. As for `CCC[C@@H]1C(=O)c2c(cc3cc(OCCOCCOCC(=O)NO)cc(O)c3c2O)C[C@H]1C`, the outcome with Nucleic Acid [8], in the experiment on Nucleic Acid [9] and in the experiment on Nucleic Acid [6] was Active. In addition, the outcome with Nucleic Acid [10] was inactive.
